Results taken from patent US20250282828A1, “PEPTIDES FOR THE TREATMENT OF RESPIRATORY INFECTIONS OF VIRAL ORIGIN” (CENTRO DE INGENIERÍA GENÉTICA Y BIOTECNOLOGÍA, priority 2020, published 2025).
Like-named read-outs stand apart in the source and are kept apart here. Non-standard residues stand in square brackets, D forms with d. Residues, ends and D or L forms follow the SMILES beside them. No end group written: not given here.

Legend:
human bocavirus (HBoV) = assay: Human bocavirus replication in tracheal HAE (qPCR NS1 region); format: cell-based; conditions: 50 μM, 72 hours
[1] = system: herpes simplex virus type 1 (HSV-1); assay: HSV-1 replication in primary explants of human nasal mucosa (qPCR); format: cell-based; conditions: 36 hours
Experimental: The replication of herpes simplex virus type 1 (HSV-1) was performed in primary explants of human nasal mucosa, according to Glorieux et al. (Glorieux et al. 2011, PLoS ONE, 6(7): e22160, doi: 10.1371/journal.pone.0022160). […] Afterwards, the cultures were washed and kept at 37° C. and 5% CO2 for 36 hours, in presence of the peptides in culture medium. The cultures were harvested, and HSV-1 was quantified by qPCR. The percentages of viral inhibition ranged from 70 to 92% in presence of the peptides (Table 5).

AdV 7 Gomen strain = assay: Adenovirus type 7 replication in bronchial HAE (qPCR); format: cell-based; conditions: 50 μM, 24 hours
SARS-CoV-2 [2] = system: SARS-CoV-2
[3] = system: respiratory syncytial virus (RSV); assay: Respiratory syncytial virus replication in bronchial HAE (RT-qPCR); format: cell-based; conditions: 50 μM, 10 days
Influenza A H1N1 = format: cell-based; conditions: 50 μM; tracheo-bronchial HAE
SARS-CoV-2 [4] = system: SARS-CoV-2; remark: listed apart in the source
[5] = system: Parainfluenza virus type 3 (HPIV3); format: cell-based; conditions: 50 μM; HAE, 3 days
Protein N (SARS-CoV-2) = Protein N (SARS-CoV-2) (Severe acute respiratory syndrome coronavirus 2, UniProt P0DTC9); assay: BIACORE surface plasmon resonance interaction with immobilized peptide; format: binding; conditions: analyte 10-200 nM
ZIKV E protein (Zika) = molecular target: T1, ZIKV E protein (Zika) (Zika virus, UniProt A0A024B7W1); assay: as above; format: binding
T1 construct: the envelope protein of the Zika virus (ZIKV E)

Dengue 2 virus = Dengue 2 virus replication in primary cultures of lung cells (PFU in VeroE6); format: cell-based; conditions: 48 hours
Experimental: The cultures were treated with the peptides for 2 or 24 hours, at concentrations of 0.01 to 100 μM before viral challenge. The medium was discarded and the cells were infected with Dengue 2 virus, at an MOI of 10 for 2 hours at 37° C. and 5% CO2. The virus was eliminated, a wash was then performed and the cultures were treated again with peptides in DMEM medium, and incubated for 48 hours at 37° C. and 5% CO2. Subsequently, the cultures were collected to assess viral performance on VeroE6 cells. For this, the cells were seeded in 24-well plates and when they reached confluence they were infected with serial 10-fold dilutions of the supernatants, incubated for 1 hour at 37° C. and 5% CO2. Next, a wash was carried out with PBS, and a layer of agar in 2× DMEM (1:1) added. The layer was allowed to solidify and incubated for 48 hours at 37° C. 5% CO2. The plates were stained with crystal violet, for the determination of the number of PFUs. The peptides inhibited between 68 and 88% of viral replication (Table 5).

[6] = system: capsid protein of the Influenza H1N1 virus; assay: BIACORE surface plasmon resonance interaction with immobilized peptide; format: binding
[7] = molecular target: T2, Dengue 2 virus capsid protein (Dengue virus type 2, UniProt P29990); assay: as above; format: binding
T2 construct: with the Dengue 2 virus capsid protein

NS1-D2 (Dengue) = molecular target: T3, NS1-D2 (Dengue) (Dengue virus type 2, UniProt P29990); assay: as above; format: binding, Dengue virus 2
T3 construct: the non-structural protein 1 of the Dengue virus 2 (NS1-D2)
T3 sequence (P29990 776-1127 limits assumed): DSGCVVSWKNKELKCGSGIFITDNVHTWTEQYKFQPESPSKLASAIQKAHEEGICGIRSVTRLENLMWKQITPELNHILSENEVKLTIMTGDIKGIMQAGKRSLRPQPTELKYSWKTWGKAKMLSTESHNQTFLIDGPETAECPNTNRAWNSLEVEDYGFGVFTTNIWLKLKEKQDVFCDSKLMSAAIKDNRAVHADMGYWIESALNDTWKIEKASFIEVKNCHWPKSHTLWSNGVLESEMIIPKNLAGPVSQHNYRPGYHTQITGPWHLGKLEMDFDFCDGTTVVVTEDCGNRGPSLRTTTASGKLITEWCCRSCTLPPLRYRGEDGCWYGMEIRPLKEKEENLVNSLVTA

T2 sequence (P29990 1-100 limits assumed): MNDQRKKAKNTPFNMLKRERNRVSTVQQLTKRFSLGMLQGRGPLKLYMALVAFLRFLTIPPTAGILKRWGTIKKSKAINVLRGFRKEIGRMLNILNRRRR
T1 sequence (A0A024B7W1 291-794): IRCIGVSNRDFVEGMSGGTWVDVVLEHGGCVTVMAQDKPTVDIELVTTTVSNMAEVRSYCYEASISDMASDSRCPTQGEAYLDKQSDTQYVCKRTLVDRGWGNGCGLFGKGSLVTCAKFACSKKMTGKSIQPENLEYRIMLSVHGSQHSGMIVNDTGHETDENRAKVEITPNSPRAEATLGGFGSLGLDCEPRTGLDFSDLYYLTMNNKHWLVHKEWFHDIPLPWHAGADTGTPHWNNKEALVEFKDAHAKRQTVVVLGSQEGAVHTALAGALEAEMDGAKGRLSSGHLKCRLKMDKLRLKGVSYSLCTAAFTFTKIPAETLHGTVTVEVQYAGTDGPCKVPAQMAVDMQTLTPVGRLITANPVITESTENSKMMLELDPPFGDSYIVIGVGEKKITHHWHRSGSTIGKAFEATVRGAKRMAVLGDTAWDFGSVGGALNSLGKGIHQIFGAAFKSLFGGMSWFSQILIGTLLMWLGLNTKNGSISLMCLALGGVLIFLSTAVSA

Compound: CSCC[C@H](NC(=O)[C@H](CCC(N)=O)NC(=O)[C@@H](NC(=O)[C@@H](NC(=O)[C@H](CCCNC(=N)N)NC(C)=O)C(C)C)[C@@H](C)O)C(=O)N[C@H](CC(N)=O)C(=O)N[C@@H](CC(C)C)C(=O)N[C@@H](CC(N)=O)C(=O)N[C@@H](CC(=O)O)C(=O)N[C@@H](CCCNC(=N)N)C(=O)N[C@@H](CC(C)C)C(=O)N[C@@H](C)C(=O)N[C@@H](CO)C(=O)N[C@@H](CC(C)C)C(=O)N[C@@H](Cc1ccc(O)cc1)C(=O)N[C@@H](CC(=O)O)C(=O)N[C@@H](CCCCN)C(=O)N[C@H](C(=O)O)C(C)C [SEQ ID NO: 3] (Ac-RVTQM[dN]LNDRLASLYDKV-OH; C-terminus assumed)
- Bocavirus HBoV-1 Inhib. % (human bocavirus (HBoV)): 80%
- Herpes simplex HSV-1 Inhib. % ([1]; 50 μM): 73%
- Adenovirus Ad7 Inhib. % (AdV 7 Gomen strain): 82%
- Inhibition % (SARS-CoV-2 [2]; 96 h, 100 μM): 85.4%
- Sincitial respiratory virus Inhib. % [3]: 87%
- Influenza A H1N1 Inhib. % (Influenza A H1N1): 93%

Compound: CSCC[C@H](NC(=O)[C@H](CCC(N)=O)NC(=O)[C@@H](NC(=O)[C@@H](NC(=O)[C@H](CCCNC(=N)N)NC(C)=O)C(C)C)[C@@H](C)O)C(=O)N[C@@H](CC(N)=O)C(=O)N[C@@H](CC(C)C)C(=O)N[C@H](CC(N)=O)C(=O)N[C@@H](CC(=O)O)C(=O)N[C@@H](CCCNC(=N)N)C(=O)N[C@@H](CC(C)C)C(=O)N[C@@H](C)C(=O)N[C@@H](CO)C(=O)N[C@@H](CC(C)C)C(=O)N[C@@H](Cc1ccc(O)cc1)C(=O)N[C@@H](CC(=O)O)C(=O)N[C@@H](CCCCN)C(=O)N[C@H](C(=O)O)C(C)C [SEQ ID NO: 4] (Ac-RVTQMNL[dN]DRLASLYDKV-OH; C-terminus assumed)
- Inhibition % (SARS-CoV-2 [2]; 96 h, 100 μM): 92.4%
- Bronchial HAE Inhibition % (SARS-CoV-2 [4]; 72 h, 100 μM): 85%
- Nasal HAE Inhibition % (SARS-CoV-2 [4]; 72 h, 100 μM): 80%

Compound: CSCC[C@H](NC(=O)[C@H](CCC(N)=O)NC(=O)[C@@H](NC(=O)[C@@H](NC(=O)[C@H](CCCNC(=N)N)NC(C)=O)C(C)C)[C@@H](C)O)C(=O)N[C@@H](CC(N)=O)C(=O)N[C@@H](CC(C)C)C(=O)N[C@@H](CC(N)=O)C(=O)N[C@H](CC(=O)O)C(=O)N[C@@H](CCCNC(=N)N)C(=O)N[C@@H](CC(C)C)C(=O)N[C@@H](C)C(=O)N[C@@H](CO)C(=O)N[C@@H](CC(C)C)C(=O)N[C@@H](Cc1ccc(O)cc1)C(=O)N[C@@H](CC(=O)O)C(=O)N[C@@H](CCCCN)C(=O)N[C@H](C(=O)O)C(C)C [SEQ ID NO: 5] (Ac-RVTQMNLN[dD]RLASLYDKV-OH; C-terminus assumed)
- Inhibition % (SARS-CoV-2 [2]; 96 h, 100 μM): 85.3%

Compound: Ac-RVTQMNLNDRLASLYDKV [SEQ ID NO: 2]
- Parainfluenza Type 3 Inhib. % [5]: 89%
- Kd (Protein N (SARS-CoV-2)): 523 nM
- Kd (ZIKV E protein (Zika)): 18.2 µM
- interaction (ZIKV E protein (Zika)): showed interaction
- Dengue 2 Inhib. % (Dengue 2 virus; 50 μM): 88%
- Inhibition % (SARS-CoV-2 [2]; 96 h, 50 μM): 95.1%
- Kd [6]: 24.3 nM
- interaction [6]: showed interaction
- Sincitial respiratory virus Inhib. % [3]: 83%
- Bronchial HAE Inhibition % (SARS-CoV-2 [4]; 72 h, 50 μM): 90%
- Nasal HAE Inhibition % (SARS-CoV-2 [4]; 72 h, 50 μM): 80%
- Influenza A H1N1 Inhib. % (Influenza A H1N1): 90%
- Kd [7]: 754 nM
- interaction (NS1-D2 (Dengue)): showed interaction

Compound: NDRLASLYDKV [SEQ ID NO: 14]
- Kd (Protein N (SARS-CoV-2)): 1140 nM
- Kd (ZIKV E protein (Zika)): 3.2 µM
- interaction (ZIKV E protein (Zika)): showed interaction
- Dengue 2 Inhib. % (Dengue 2 virus; 50 μM): 70%
- Inhibition % (SARS-CoV-2 [2]; 96 h, 50 μM): 83.2%
- Kd [6]: 4670 nM
- interaction [6]: showed interaction
- Sincitial respiratory virus Inhib. % [3]: 82%
- Influenza A H1N1 Inhib. % (Influenza A H1N1): 79%
- Kd [7]: 5910 nM
- interaction (NS1-D2 (Dengue)): showed interaction

Compound: NLNDRLASLYDKV [SEQ ID NO: 15]
- Herpes simplex HSV-1 Inhib. % ([1]; 50 μM): 81%
- Parainfluenza Type 3 Inhib. % [5]: 69%
- Kd (Protein N (SARS-CoV-2)): 7820 nM
- Adenovirus Ad7 Inhib. % (AdV 7 Gomen strain): 78%
- Kd (ZIKV E protein (Zika)): 0.0624 µM
- interaction (ZIKV E protein (Zika)): showed interaction
- Inhibition % (SARS-CoV-2 [2]; 96 h, 50 μM): 87.1%
- Kd [6]: 189 nM
- interaction [6]: showed interaction
- Bronchial HAE Inhibition % (SARS-CoV-2 [4]; 72 h, 50 μM): 90%
- Nasal HAE Inhibition % (SARS-CoV-2 [4]; 72 h, 50 μM): 86%
- Kd [7]: 1270 nM
- interaction (NS1-D2 (Dengue)): showed interaction

Compound: RATQMNLNDRLASLYDKV [SEQ ID NO: 6]
- Inhibition % (SARS-CoV-2 [2]; 96 h, 100 μM): 82.2%

Compound: RVTAMNLNDRLASLYDKV [SEQ ID NO: 7]
- Adenovirus Ad7 Inhib. % (AdV 7 Gomen strain): 69%
- Dengue 2 Inhib. % (Dengue 2 virus; 100 μM): 87%
- Inhibition % (SARS-CoV-2 [2]; 96 h, 100 μM): 92.4%
- Influenza A H1N1 Inhib. % (Influenza A H1N1): 70%

Compound: RVTQANLNDRLASLYDKV [SEQ ID NO: 8]
- Bocavirus HBoV-1 Inhib. % (human bocavirus (HBoV)): 87%
- Parainfluenza Type 3 Inhib. % [5]: 73%
- Dengue 2 Inhib. % (Dengue 2 virus; 50 μM): 72%
- Inhibition % (SARS-CoV-2 [2]; 96 h, 100 μM): 90.2%
- Bronchial HAE Inhibition % (SARS-CoV-2 [4]; 72 h, 100 μM): 92%
- Nasal HAE Inhibition % (SARS-CoV-2 [4]; 72 h, 100 μM): 88%

Compound: RVTQMNANDRLASLYDKV [SEQ ID NO: 9]
- Bocavirus HBoV-1 Inhib. % (human bocavirus (HBoV)): 75%
- Adenovirus Ad7 Inhib. % (AdV 7 Gomen strain): 79%
- Inhibition % (SARS-CoV-2 [2]; 96 h, 100 μM): 83.7%
- Influenza A H1N1 Inhib. % (Influenza A H1N1): 89%

Compound: RVTQMNLADRLASLYDKV [SEQ ID NO: 16]
- Inhibition % (SARS-CoV-2 [2]; 96 h, 100 μM): 79.6%

Compound: RVTQMNLNARLASLYDKV [SEQ ID NO: 10]
- Inhibition % (SARS-CoV-2 [2]; 96 h, 100 μM): 70.8%

Compound: RVTQMNLNDALASLYDKV [SEQ ID NO: 17]
- Inhibition % (SARS-CoV-2 [2]; 96 h, 100 μM): 72.7%

Compound: RVTQMNLNDRAASLYDKV [SEQ ID NO: 21]
- Inhibition % (SARS-CoV-2 [2]; 96 h, 100 μM): 25.5%
- inhibition of SARS-CoV-2 in primary cultures of human airway epithelium (SARS-CoV-2 [4]): ≤ 20%

Compound: RVTQMNLNDRLAALYDKV [SEQ ID NO: 18]
- Inhibition % (SARS-CoV-2 [2]; 96 h, 100 μM): 69.2%

Compound: RVTQMNLNDRLASLYAKV [SEQ ID NO: 12]
- Inhibition % (SARS-CoV-2 [2]; 96 h, 100 μM): 77.4%

Compound: RVTQMNLNDRLASLYDAV [SEQ ID NO: 13]
- Herpes simplex HSV-1 Inhib. % ([1]; 50 μM): 78%
- Parainfluenza Type 3 Inhib. % [5]: 90%
- Adenovirus Ad7 Inhib. % (AdV 7 Gomen strain): 76%
- Inhibition % (SARS-CoV-2 [2]; 96 h, 100 μM): 90.5%
- Sincitial respiratory virus Inhib. % [3]: 91%
- Bronchial HAE Inhibition % (SARS-CoV-2 [4]; 72 h, 50 μM): 89%
- Nasal HAE Inhibition % (SARS-CoV-2 [4]; 72 h, 50 μM): 79%

Compound: RVTQMNLNDRLVSLYDKV [SEQ ID NO: 11]
- Inhibition % (SARS-CoV-2 [2]; 96 h, 100 μM): 73.9%

Compound: SEQ ID NO: 19: synthetic peptide related to SEQ ID NO: 1, obtained by solid phase synthesis (RVTQMNLNDRLASLYDKV; Description of the Artificial Sequence synthetic peptide where N6 is a D amino acid)
- Bocavirus HBoV-1 Inhib. % (human bocavirus (HBoV)): 85%
- Dengue 2 Inhib. % (Dengue 2 virus; 50 μM): 68%
- Inhibition % (SARS-CoV-2 [2]; 50 µM): 91.8%
- Sincitial respiratory virus Inhib. % [3]: 75%
- Bronchial HAE Inhibition % (SARS-CoV-2 [4]; 100 µM): 86%
- Nasal HAE Inhibition % (SARS-CoV-2 [4]; 100 µM): 82%
- Influenza A H1N1 Inhib. % (Influenza A H1N1): 67%

Compound: SEQ ID NO: 20: synthetic peptide related to SEQ ID NO: 1, obtained by solid phase synthesis (RVTQMNLNDRLASLYDKV; Description of the Artificial Sequence synthetic peptide where N8 is a D amino acid)
- Bocavirus HBoV-1 Inhib. % (human bocavirus (HBoV)): 67%
- Herpes simplex HSV-1 Inhib. % ([1]; 100 μM): 70%
- Parainfluenza Type 3 Inhib. % [5]: 79%
- Inhibition % (SARS-CoV-2 [2]; 50 µM): 69.8%
